Assay: Solubility of zizanoic acid in water
Type: physicochemical
Conditions: in presence of the other substances present in the extract

Compound: C=C1[C@H]2CC[C@H](C(=O)O)[C@@]23CC[C@H](C3)C1(C)C [zizanoic acid]
- solubility of zizanoic acid in water: improved

Reference: patent US11654102B2, “Cosmetic composition comprising vetiver root extract” (GIVAUDAN SA, priority 2018, dated 2023)
